Marks after values point to notes of the source that are not given here.
What was measured:
Assay type in all cases: in vivo
[1] = system: male obese ZSF1 rats (diabetic nephropathy model); experiment: ZSF1 rat study: kidney collagen I and III immunostaining; settings: obese ZSF1 rats, 10 mpk in-feed, week 28
Protocol: (§1) The effects of Compound A (“A”) on renal function, plasma triglycerides, plasma cholesterol, kidney collagen I, kidney collagen III, renal histology, glomerular filtration rate, fibrosis score, and mRNA gene expression (profibrotic genes and integrin β3) were evaluated in male obese ZSF1 rats (a hybrid F1 of Zucker diabetic fatty rat and spontaneously hypertensive heart failure rat; a diabetic nephropathy model) when administered as in-feed for 28 weeks. Sixty obese male ZSF1 rats were randomized to five groups: Obese control (n=12), Compound A 60 mpk (n=12), Compound A 200 mpk (n=12), Compound A 400 mpk (n=12), Enalapril 10 mpk (n=12); Eight lean male ZSF1 rats were used for normal control. Renal functional changes were monitored by blood and urine analysis following in-feed dosing for 28 weeks. Compound exposure was also monitored during the study.
Following deparaffinization and rehydration, each kidney tissue section was processed to identify collagen I and III deposition. The primary antibodies used were rabbit anti-type I collagen polyclonal antibody (Abcam, Cambridge, Mass.) diluted at 2 ug/ml, and rabbit anti-type III collagen polyclonal antibody (Lifespan, Seattle, Wash.) at 3 ug/ml. The signal was developed by using Super PicTure HRP Polymer Rabbit Primary kit (Invitrogen) and the slides were counterstained with hematoxylin. The Aperio ScanScope XT Slide Scanner (Aperio Technologies, Vista, Calif.) system was used to capture whole slide digital images with a 20× objective. Digital images were managed using Aperio Spectrum. The positive stains were identified and quantified using a macro created from a color deconvolution algorithm (Aperio Technologies, Vista, Calif.).

[2] = system: male obese ZSF1 rats (diabetic nephropathy model); experiment: ZSF1 rat study: plasma triglyceride and cholesterol; settings: obese ZSF1 rats, 10 mpk in-feed; for plasma cholesterol levels: in mg/dL (unit assumed)
Protocol: as §1

[3] = system: male obese ZSF1 rats (diabetic nephropathy model); experiment: ZSF1 rat study: renal fibrosis score (histology); settings: obese ZSF1 rats, 10 mpk in-feed, week 28
Protocol: as §1
Upon completion of the study, animals were euthanized and blood and organs (kidney, heart, aorta, eyes, and lumber vertebrae (LV1-LV5) and left femur) were collected for histology assessment (including EM for the kidneys) or DEXA scan (lumber vertebrae and left femur). Kidney tissues were fixed in 10% formalin and then paraffin embedded. Tissue sections were stained with hematoxylin and eosin (H&E), periodic acid-Schiff (PAS), and Masson's trichrome and evaluated under light microscope. The severity of histopathologic changes in renal tubules, interstitium, vasculature, and glomeruli were graded on a 1 to 5 scale corresponding to minimal, mild, moderate, marked, and severe as described previously. Sections from both kidneys were examined. Collagen deposition in the kidney was graded on a 1 to 5 scale corresponding to minimal, mild, moderate, marked, and severe, based on the blue stained area size and intensity.

[4] = system: male obese ZSF1 rats (diabetic nephropathy model); experiment: ZSF1 rat study: GFR measurement by FITC-sinistrin clearance; settings: obese ZSF1 rats, 10 mpk in-feed, week 28
Protocol: as §1
For the measurement of GFR, a miniaturized device (NIC-Kidney, Mannheim Pharma & Diagnostics, Mannheim, Germany) was used. In brief, the device (batteries, diodes, and microprocessor) containing an optical component was affixed on a depilated region of the back using a double-sided sticky patch (Lohmann GmbH KG, 56567, Neuwied, Germany) under isofluorane anesthesia (3% isoflurane mixed with oxygen). After a resting baseline period of 1-1.5 minutes, a bolus of FITC-sinistrin (5 mg/100 g body weight, dissolved in 0.5 mL sterile isotonic saline) was injected through the tail vein. The rat was then placed in a clean cage for recovery from anesthesia to responsible ambulation. […] The excretion kinetics of FITC-sinistrin was determined using a sampling rate of 60 measurements per minute with an excitation time of 10 milliseconds per measurement for 120 minutes after the injection. One compartment model was used for FITC-sinistrin clearance. After completion of GFR measurement, the device was gently removed from the skin and the rat returned to its home cage.

[5] = ZSF1 rat 28-week in-feed study: body weight, food and water intake; settings: obese ZSF1 rats, 10 mpk in-feed
Protocol: as §1

[6] = system: male obese ZSF1 rats (diabetic nephropathy model); experiment: ZSF1 rat 28-week in-feed study: urinary protein (UPCR, 24 h excretion); settings: obese ZSF1 rats, 10 mpk in-feed
Protocol: as §1

[7] = system: male obese ZSF1 rats (diabetic nephropathy model); experiment: ZSF1 rat study: kidney mRNA expression of profibrotic genes and integrin beta3; settings: obese ZSF1 rats, 10 mpk in-feed, week 28
Protocol: as §1

CCOC(=O)[C@H](CCc1ccccc1)N[C@@H](C)C(=O)N1CCC[C@H]1C(=O)O [Enalapril, reference compound]
kidney collagen I protein levels [1]: 34.83 ± 0.71 % of area
kidney collagen III protein levels [1]: 19.19 ± 0.90 % of area
Plasma Triglyceride ([2]; week 2): 2979.8 ± 161.7 mg/dL
plasma cholesterol levels ([2]; week 2): 220.9 ± 5.9
Plasma Triglyceride ([2]; week 4): 3212.4 ± 137.6 mg/dL
plasma cholesterol levels ([2]; week 4): 251.1 ± 7.4
Plasma Triglyceride ([2]; week 6): 2866.6 ± 145.5 mg/dL
plasma cholesterol levels ([2]; week 6): 232.5 ± 6.0
Plasma Triglyceride ([2]; week 8): 3770.3 ± 280.6 mg/dL
plasma cholesterol levels ([2]; week 8): 294.3 ± 6.7
Plasma Triglyceride ([2]; week 12): 3298.3 ± 221.4 mg/dL
plasma cholesterol levels ([2]; week 12): 290.2 ± 7.6
Plasma Triglyceride ([2]; week 16): 3554.6 ± 186.3 mg/dL
plasma cholesterol levels ([2]; week 16): 319.3 ± 9.9
Plasma Triglyceride ([2]; week 21): 3224.3 ± 240.5 mg/dL
plasma cholesterol levels ([2]; week 21): 321.1 ± 11.3
Plasma Triglyceride ([2]; week 24): 3180.2 ± 204.5 mg/dL
plasma cholesterol levels ([2]; week 24): 354.3 ± 12.5
Plasma Triglyceride ([2]; week 28): 2855.1 ± 291.3 mg/dL
plasma cholesterol levels ([2]; week 28): 368.8 ± 13.2
Plasma Triglyceride ([2]; week −2): 2023.9 ± 82.1 mg/dL
plasma cholesterol levels ([2]; week −2): 187.1 ± 5.4
renal fibrosis score (expressed as 0-5) [3]: 2.0 ± 0.1
FITC-sinistrin clearance, % change of improvement compared to Obese Vehicle group [4]: 59.6%****
Glomerular Filtration Rate [4]: 971.9 ± 53.3 uLs/Min/100 gm BW
Body Weight ([5]; week 1): 570.2 ± 10.3 grams
Food Intake ([5]; week 1): 30.1 ± 1.3 grams/24 h
Water Intake ([5]; week 1): 50.2 ± 6.2 mls/24 h
Body Weight ([5]; week 2): 578.3 ± 11.2 grams
Food Intake ([5]; week 2): 31.7 ± 1.4 grams/24 h
Water Intake ([5]; week 2): 55.0 ± 5.2 mls/24 h
Body Weight ([5]; week 4): 585.7 ± 11.1 grams
Food Intake ([5]; week 4): 33.1 ± 1.0 grams/24 h
Water Intake ([5]; week 4): 56.6 ± 6.0 mls/24 h
Body Weight ([5]; week 6): 606.1 ± 11.6 grams
Food Intake ([5]; week 6): 33.1 ± 1.0 grams/24 h
Water Intake ([5]; week 6): 61.7 ± 5.5 mls/24 h
Body Weight ([5]; week 8): 623.8 ± 13.3 grams
Food Intake ([5]; week 8): 35.1 ± 1.5 grams/24 h
Water Intake ([5]; week 8): 85.4 ± 7.4 mls/24 h
Body Weight ([5]; week 10): 637.2 ± 14.1 grams
Body Weight ([5]; week 12): 655.6 ± 14.2 grams
Food Intake ([5]; week 12): 36.6 ± 1.5 grams/24 h
Water Intake ([5]; week 12): 91.7 ± 7.5 mls/24 h
Body Weight ([5]; week 14): 658.1 ± 16.2 grams
Body Weight ([5]; week 16): 671.1 ± 16.8 grams
Food Intake ([5]; week 16): 33.3 ± 1.6 grams/24 h
Water Intake ([5]; week 16): 83.3 ± 8.3 mls/24 h
Body Weight ([5]; week 18): 682.1 ± 16.4 grams
Body Weight ([5]; week 21): 709.5 ± 18.0 grams
Food Intake ([5]; week 21): 37.7 ± 1.6 grams/24 h
Water Intake ([5]; week 21): 75.8 ± 5.9 mls/24 h
Body Weight ([5]; week 24): 733.7 ± 20.2 grams
Food Intake ([5]; week 24): 35.5 ± 1.3 grams/24 h
Water Intake ([5]; week 24): 89.7 ± 7.9 mls/24 h
Body Weight ([5]; week 28): 753.7 ± 21.8 grams
Food Intake ([5]; week 28): 33.6 ± 1.5 grams/24 h
Water Intake ([5]; week 28): 68.0 ± 6.5 mls/24 h
Body Weight ([5]; week −2): 522.2 ± 10.2 grams
Food Intake ([5]; week −2): 37.5 ± 1.5 grams/24 h
Water Intake ([5]; week −2): 68.1 ± 4.9 mls/24 h
24 h Urinary Protein Excretion ([6]; week 1): 73.9 ± 3.8 mg/24 h
UPCR (urinary protein/creatinine ratio) ([6]; week 1): 6.3 ± 0.3 mg/mg
24 h Urinary Protein Excretion ([6]; week 2): 91.2 ± 4.9 mg/24 h
UPCR (urinary protein/creatinine ratio) ([6]; week 2): 7.4 ± 0.4 mg/mg
24 h Urinary Protein Excretion ([6]; week 4): 96.1 ± 5.1 mg/24 h
UPCR (urinary protein/creatinine ratio) ([6]; week 4): 8.0 ± 0.4 mg/mg
24 h Urinary Protein Excretion ([6]; week 6): 92.2 ± 6.0 mg/24 h
UPCR (urinary protein/creatinine ratio) ([6]; week 6): 7.3 ± 0.4 mg/mg
24 h Urinary Protein Excretion ([6]; week 8): 135.3 ± 10.2 mg/24 h
UPCR (urinary protein/creatinine ratio) ([6]; week 8): 10.2 ± 0.6 mg/mg
24 h Urinary Protein Excretion ([6]; week 12): 234.8 ± 16.4 mg/24 h
UPCR (urinary protein/creatinine ratio) ([6]; week 12): 17.1 ± 0.9 mg/mg
24 h Urinary Protein Excretion ([6]; week 16): 252.2 ± 21.1 mg/24 h
UPCR (urinary protein/creatinine ratio) ([6]; week 16): 14.0 ± 0.7 mg/mg
24 h Urinary Protein Excretion ([6]; week 21): 274.5 ± 16.8 mg/24 h
UPCR (urinary protein/creatinine ratio) ([6]; week 21): 15.6 ± 0.6 mg/mg
24 h Urinary Protein Excretion ([6]; week 24): 289.4 ± 16.5 mg/24 h
UPCR (urinary protein/creatinine ratio) ([6]; week 24): 16.6 ± 0.8 mg/mg
24 h Urinary Protein Excretion ([6]; week 28): 309.6 ± 15.8 mg/24 h
UPCR (urinary protein/creatinine ratio) ([6]; week 28): 19.5 ± 0.8 mg/mg
24 h Urinary Protein Excretion ([6]; week −2): 132.9 ± 9.9 mg/24 h
UPCR (urinary protein/creatinine ratio) ([6]; week −2): 10.8 ± 0.8 mg/mg
Collagen I (a1) expression in the kidney [7]: 0.54 ± 0.02
Collagen III (a1) expression in the kidney [7]: 0.39 ± 0.02
Integrin beta3 expression in the kidney [7]: 0.68 ± 0.03
PAI-1 expression in the kidney [7]: 0.52 ± 0.04
